# Results reported in paper PMC6152717, “Novel Tacrine-Scutellarin Hybrids as Multipotent Anti-Alzheimer’s Agents: Design, Synthesis and Biological Evaluation” (Molecules : A Journal of Synthetic Chemistry and Natural …, 2017).
# Marks after values point to notes of the source that are not given here.
# How the values were obtained:
# [1] = DPPH antioxidant assay; conditions: mean of at least three experiments; 30 min, methanol
# Source text: The free phenolic group of 1 is presumably able to easily undergo keto-enol tautomerism which has previously been postulated to be responsible for radical scavenging. Within the family of 6-Cl-THA-scutellarin hybrids, all the phenolic hydroxyls of scutellarin moiety are hindered by methyl containing methoxy groups and thus unable to exert such an effect under in vitro conditions. However, the antioxidant activity of K1383–K1389 in vivo may occur due to metabolism of the compound whereby demethylation of one or more methoxy groups can take place. This is known to be the case of 7-methoxytacrine and its major metabolite found in vivo, 7-hydroxytacrine.
# DPPH, methanol, and Trolox (as reference standard) were purchased from Sigma-Aldrich. Polystyrene Nunc 96-well microplates with flat bottom shape (Thermo Fisher Scientific) were used for measuring purposes. All of the assays were carried out in methanol. DPPH solution was prepared at 0.2 mM concentration. […] The reaction time constituted 30 min. The antioxidant activity was determined by measuring the […] in absorbance at 517 nm at laboratory temperature using Synergy 2 multimode microplate reader. Each concentration was tested in triplicate. The software GraphPad Prism version 5 for Windows was used for statistical data evaluation.
# [2] = biological target: T1, human acetylcholinesterase (hAChE) (Homo sapiens, UniProt P22303); test: biochemical; conditions: AChE from human erythrocytes; mean of three independent measurements ± SEM
# T1 construct: Human erythrocyte hemolyzate, prepared from blood samples, was applied as a source of AChE (EC 3.1.1.7); from tissue; host or cells: human erythrocytes (hemolyzate from blood of healthy volunteers)
# Procedure: (§1) Human erythrocyte hemolyzate, prepared from blood samples, was applied as a source of AChE (EC 3.1.1.7). […] The erythrocytes were washed three times with phosphate buffer (PB; 0.1 M, pH 7.4) and then hemolyzed in PB (0.01 M, Ph 7.4) in ration 1:10 (w/w), frozen and kept under −80 °C before use. Human plasma BChE (EC 3.1.1.8), 5,5′-dithiobis(2-nitrobenzoic acid) (Ellman’s reagent, DTNB), phosphate buffer solution (PBS, pH 7.4), acetylthiocholine iodide (ATCh), and butyrylthiocholine (BTCh) were purchased from Sigma-Aldrich. Polystyrene Nunc 96-well microplates with flat bottom shape (ThermoFisher Scientific, Bremen, Germany) were used for the measuring purposes. All of the assays were carried out in 0.1 M KH2PO4/K2HPO4 buffer, pH 7.4. […] The assay medium (100 μL) consisted of 40 μL of 0.1 M PBS (pH = 7.4), 20 μL of 0.01 M DTNB, 10 μL of cholinesterase, 10 µL of tested compound and 20 μL of 0.01 M substrate (ATCh or BTCh iodide solution). Assayed solutions of target compounds (10 μL, 10^−^3–10^−^9 M) were preincubated with enzyme for 5 min. The reaction was initiated by addition of 20 μL of substrate. […] Each concentration was assayed in triplicate. Percentage of inhibition (I) was calculated from the measured data as follows Equation (1): (1) I=(1−ΔAi/ΔA0)×100 [%]
# (§2) ΔAi indicates absorbance change provided by cholinesterase exposed to tested compound. ΔA0 indicates absorbance change caused by intact cholinesterase, where phosphate bufffer was applied in the same was as the anticholinesterase compound. […] The IC50 values are expressed as a mean ± SEM.
# [3] = biological target: T2, hAChE (Homo sapiens, UniProt P22303); test: Kinetic study of AChE inhibition (Lineweaver-Burk, nonlinear regression); assay type: biochemical
# T2 construct: Human erythrocyte hemolyzate, prepared from blood samples, was applied as a source of AChE (EC 3.1.1.7); from tissue; host or cells: human erythrocytes (hemolyzate from blood of healthy volunteers)
# Procedure: To determine the interaction of K1383 with hAChE, a kinetic study was carried out. Enzyme rate curves were obtained at several substrate concentrations of the inhibitor.
# Inhibitors bind reversibly to both free AChE and AChE-substrate complex with equal affinity (Ki = Ki′) thus affecting the binding of substrate in the active site of enzyme and interacting with its allosteric peripheral anionic site (PAS). Interaction in this site causes conformational changes of the enzyme, including its active site. Km remained unchanged, while Vmax was reduced at higher concentration of K1383.
# The kinetic study of AChE inhibition was performed using Ellman’s method. […] The type of inhibition and corresponding inhibition constant (Ki and Ki′) were determined by the nonlinear regression analysis of the substrate velocity curves at different concentrations of tested compounds. Results for each type model of inhibition (competitive, uncompetitive, mixed and mixed-non-competitive) were compared with sum-of-squares F-test. Lineweaver-Burk (double-reciprocal) plot, used for visualization of the enzyme-inhibitor interactions, was calculated using weighted least-squares regression. All calculations were performed using the GraphPad Prism software.
# Figure 2 Steady-state inhibition of AChE hydrolysis of substrate acetylthiocholine (ATCh) by compound K1383 at different concentrations. […]
# [4] = test system: HepG2 cells; test: Hepatotoxicity on HepG2 cells, MTT assay; assay type: cell-based; conditions: for IC50: Homo sapiens, HepG2, MTT, 24 h incubation, mean ± SEM of three independent experiments; for cytotoxicity compared to reference 6-Cl-THA: HepG2, 24 h incubation
# Procedure: Hepatotoxicity of tested compounds was evaluated using the HepG2 cell line originally from human liver hepatocellular carcinoma (ATCC, Manassas, VA, USA). These cells were plated at density 17 × 10^3 per well in a 96-well plate in Dulbecco’s Modified Eagle’s Medium (DMEM; Gibco, Langley, OK, USA) with 10% FBS (Gibco) and were left to attach overnight. […] Stock solutons of tested compounds were prepared in DMSO (Sigma Aldrich, Prague, Czech Republic) and then diluted in DMEM medium. […] Subsequently, the medium was aspirated and 100 μL MTT solution (0.5 mg/mL) in serum-free DMEM medium was added to each well. Cells were then incubated for 1 h. The medium was then discarded and purple crystals of MTT formazan were dissolved in 100 μL DMSO under shaking. The absorbance was measured with a microplate reader (BioTek) at a minimum wavelength of 570 nm. The IC50 values were calculated using four parametric nonlinear regression with statistic software GraphPad Prism. Data were obtained from three independent experiments performed in triplicates.
# [5] = biological target: T3, human butyrylcholinesterase (hBChE) (Homo sapiens, UniProt P06276); test: biochemical; conditions: BChE from human plasma; mean of three independent measurements ± SEM
# T3 construct: Human plasma BChE (EC 3.1.1.8); purchased Sigma-Aldrich; host or cells: human plasma
# Source text: It is well established that the activity of AChE decreases during the course of AD, while that of BChE increases. Several reports indicate the ability of BChE to compensate the lack of AChE thus continuing in regulation of cholinergic transmission. Therefore, the agents with affinity to both cholinesterases could play a more profound role in the AD therapy.
# as §1, §2
# [6] = PAMPA-BBB permeation assay; assay type: in vitro ADME; conditions: for Prediction of BBB penetration: PAMPA-BBB class; for Papp at 100 μM / BBB crossing prediction: PAMPA-BBB; for Papp at 100 μM: PBS pH 7.4, 100 μM donor, mean ± SD of three independent experiments, read-out: Pe; for BBB crossing prediction: passive diffusion model
# Procedure: The parallel artificial membrane permeation assay (PAMPA) has been used based on reported protocol. The filter membrane of the donor plate was coated with PBL (Polar Brain Lipid, Avanti, Alabaster, AL, USA) in dodecane (4 μL of 20 mg/mL PBL in dodecane) and the acceptor well was filled with 300 μL of PBS pH 7.4 buffer (VD). Tested compounds were dissolved first in DMSO and then diluted with PBS pH 7.4 to reach the final concentration 100 μM in the donor well. […] 300 μL of the donor solution was added to the donor wells (VA) and the donor filter plate was carefully put on the acceptor plate so that coated membrane was “in touch” with both donor solution and acceptor buffer. Test compound diffused from the donor well through the lipid membrane (Area = 0.28 cm^2) to the acceptor well. The concentration of the drug in both donor and the acceptor wells was assessed after 3, 4, 5 and 6 h of incubation in quadruplicate using the Synergy HT UV plate reader at the maximum absorption wavelength of each compound. Concentration of the compounds was calculated from the standard curve and expressed as the permeability (Pe) according to Equation (2): (2) logPe=log {C×−ln(1−[drug]acceptor/[drug]equilibrium)} where C = (VD×VA/(VD+VA)×Area×time)
# [7] = test system: Electric eel AChE (EeAChE); conditions: cited from earlier work
# [8] = test system: BChE from equine serum (eqBChE); conditions: read-out: BChE IC50 ± SEM; cited from earlier work
# [9] = printed in DPPH EC50 column; cited from earlier work
# [10] = test system: AChE from human erythrocytes (hAChE); conditions: read-out: AChE IC50 ± SEM; cited from earlier work
# [11] = test system: AChE isolated from rat cortex homogenate; conditions: cited from earlier work
# [12] = test system: BChE from rat serum; conditions: read-out: BChE IC50 ± SEM; cited from earlier work
# T3 sequence (P06276 29-602): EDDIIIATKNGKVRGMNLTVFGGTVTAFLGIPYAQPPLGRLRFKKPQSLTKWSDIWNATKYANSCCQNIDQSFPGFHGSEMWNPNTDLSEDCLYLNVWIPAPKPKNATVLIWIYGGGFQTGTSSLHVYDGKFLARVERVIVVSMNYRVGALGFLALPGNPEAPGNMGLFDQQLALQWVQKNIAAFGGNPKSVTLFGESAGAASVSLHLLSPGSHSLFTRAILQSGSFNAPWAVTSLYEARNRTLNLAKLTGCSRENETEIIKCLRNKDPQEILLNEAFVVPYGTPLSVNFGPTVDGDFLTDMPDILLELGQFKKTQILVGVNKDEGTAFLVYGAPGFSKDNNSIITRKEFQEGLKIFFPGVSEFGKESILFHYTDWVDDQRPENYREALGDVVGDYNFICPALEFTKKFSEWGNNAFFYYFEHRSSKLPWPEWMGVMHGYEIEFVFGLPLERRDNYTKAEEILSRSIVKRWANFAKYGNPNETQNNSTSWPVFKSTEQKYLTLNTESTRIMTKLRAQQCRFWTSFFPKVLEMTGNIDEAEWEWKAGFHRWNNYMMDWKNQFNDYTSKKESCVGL
# T1 sequence (P22303 32-617 isoform P22303-2 limits assumed): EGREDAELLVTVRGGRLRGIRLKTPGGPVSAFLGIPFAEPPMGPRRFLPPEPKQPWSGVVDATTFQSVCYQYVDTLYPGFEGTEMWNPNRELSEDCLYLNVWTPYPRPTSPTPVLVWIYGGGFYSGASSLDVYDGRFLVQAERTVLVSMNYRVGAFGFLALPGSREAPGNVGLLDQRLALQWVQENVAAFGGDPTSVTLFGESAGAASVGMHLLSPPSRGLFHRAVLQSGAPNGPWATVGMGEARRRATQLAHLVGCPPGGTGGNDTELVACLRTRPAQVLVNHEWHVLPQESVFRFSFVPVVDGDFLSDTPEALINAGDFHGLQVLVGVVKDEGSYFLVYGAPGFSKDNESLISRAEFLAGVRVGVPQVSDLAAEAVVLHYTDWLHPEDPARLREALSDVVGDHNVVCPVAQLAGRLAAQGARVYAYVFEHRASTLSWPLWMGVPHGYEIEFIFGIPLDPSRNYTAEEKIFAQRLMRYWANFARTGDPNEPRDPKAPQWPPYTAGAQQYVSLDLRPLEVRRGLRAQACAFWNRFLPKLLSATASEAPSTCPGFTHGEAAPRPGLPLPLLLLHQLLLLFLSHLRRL
# T2 sequence (P22303 32-617 isoform P22303-2 limits assumed): as above
SMILES,EC50 [1],IC50 [2],IC50 [4],IC50 [5],Prediction of BBB penetration [6],Papp at 100 μM [6],also measured
COc1cc2oc(-c3ccc(NCCNc4c5c(nc6cc(Cl)ccc46)CCCC5)cc3)cc(=O)c2c(OC)c1OC [Compound K1383],> 500000 nM,1.63 ± 0.13 nM,3400 ± 1050 nM,1210 ± 70 nM,"CNS± (BBB permeation uncertain, Pe × 10^−6 cm/s from 4.0 to 2.0)",2.88 ± 0.1 ×10⁻⁶ cm/s,"type of inhibition ([3]; nonlinear regression analysis, p < 0.05): mixed, non-competitive; Ki ([3]; substrate ATCh 0.156–1.250 mM, Ki = Ki′): 2.75 ± 0.32 nM"
COc1cc2oc(-c3ccc(NCCCCCCCNc4c5c(nc6cc(Cl)ccc46)CCCC5)cc3)cc(=O)c2c(OC)c1OC [Compound K1388],> 500000 nM,24.1 ± 0.9 nM,> 32000 nM,2810 ± 110 nM,"CNS+ (high BBB permeation predicted, Pe × 10^−6 cm/s > 4.0)",4.92 ± 0.02 ×10⁻⁶ cm/s,cytotoxicity compared to reference 6-Cl-THA [4]: slightly suppressed cytotoxicity; BBB crossing prediction [6]: potential to cross the BBB
COc1cc2oc(-c3ccc(NCCCCNc4c5c(nc6cc(Cl)ccc46)CCCC5)cc3)cc(=O)c2c(OC)c1OC [Compound K1385],> 500000 nM,5.15 ± 0.18 nM,3290 ± 820 nM,8690 ± 40 nM,"CNS± (BBB permeation uncertain, Pe × 10^−6 cm/s from 4.0 to 2.0)",2.6 ± 0.55 ×10⁻⁶ cm/s,
"Nc1c2c(nc3cc(Cl)ccc13)CCCC2 [Compound 6-Cl-THA, 6-Chlorotacrine, reference compound]",> 100000 nM,,7130 ± 110 nM,,"CNS+ (high BBB permeation predicted, Pe × 10^−6 cm/s > 4.0)",5 ± 0.45 ×10⁻⁶ cm/s,
COc1cc2oc(-c3ccc(NCCCCCCNc4c5c(nc6cc(Cl)ccc46)CCCC5)cc3)cc(=O)c2c(OC)c1OC [Compound K1387],> 500000 nM,31 ± 1.5 nM,7760 ± 1470 nM,6460 ± 300 nM,"CNS± (BBB permeation uncertain, Pe × 10^−6 cm/s from 4.0 to 2.0)",3.31 ± 0.38 ×10⁻⁶ cm/s,
COc1cc2oc(-c3cccc(OCC(=O)NCCCCCCNc4c5c(nc6cc(Cl)ccc46)CCCC5)c3)cc(=O)c2c(OC)c1OC [Compound 2],,,,,,,"IC50 ([7]; Electric eel AChE activity, read-out: AChE IC50 ± SEM (converted)): 47.2 nM; SI (BChE IC50/AChE IC50) ([7]; electric eel AChE vs equine serum BChE): 20.5; IC50 [8]: 968.9 ± 8.26 nM; ORAC-FL antioxidant power [9]: 0.47 ± 0.03 ^a µM of Trolox/µM of tested compound; IC50 [10]: 32.5 ± 0.25 nM"
"Cc1c(C)c2c(c(C)c1O)CCC(C)(C(=O)O)O2 (stereo not drawn) [trolox, Trolox, reference compound]",16200 ± 420 nM,,,,,,
CCN(CC)c1cccc(-c2cc(=O)c3c(O)c(OC)c(OC)cc3o2)c1 [Compound 1],,,,,,,"IC50 ([11]; AChE isolated from rat cortex homogenate, read-out: AChE IC50 ± SEM): 570 ± 20 nM; SI (BChE IC50/AChE IC50) ([11]; rat AChE vs rat BChE): 39.7; IC50 [12]: 22600 ± 220 nM; ORAC-FL antioxidant power [9]: 1.3 ± 0.02 ^a µM of Trolox/µM of tested compound"
COc1cc2oc(-c3ccc(NCCCNc4c5c(nc6cc(Cl)ccc46)CCCC5)cc3)cc(=O)c2c(OC)c1OC [Compound K1384],> 500000 nM,1.9 ± 0.1 nM,5770 ± 1680 nM,174 ± 7 nM,"CNS+ (high BBB permeation predicted, Pe × 10^−6 cm/s > 4.0)",5.01 ± 2.2 ×10⁻⁶ cm/s,BBB crossing prediction [6]: potential to cross the BBB
COc1cc2oc(-c3ccc(NCCCCCNc4c5c(nc6cc(Cl)ccc46)CCCC5)cc3)cc(=O)c2c(OC)c1OC [Compound K1386],> 500000 nM,26.7 ± 1 nM,3890 ± 1080 nM,934 ± 45 nM,"CNS± (BBB permeation uncertain, Pe × 10^−6 cm/s from 4.0 to 2.0)",3.93 ± 1 ×10⁻⁶ cm/s,
COc1cc2oc(-c3ccc(NCCCCCCCCNc4c5c(nc6cc(Cl)ccc46)CCCC5)cc3)cc(=O)c2c(OC)c1OC [Compound K1389],> 500000 nM,22.3 ± 0.7 nM,> 16000 nM,2210 ± 130 nM,"CNS+ (high BBB permeation predicted, Pe × 10^−6 cm/s > 4.0)",8.1 ± 3.1 ×10⁻⁶ cm/s,cytotoxicity compared to reference 6-Cl-THA [4]: slightly suppressed cytotoxicity; BBB crossing prediction [6]: potential to cross the BBB
